# Results as given in US5316773A, “Particulate preparation containing a flourracil derivative and hydroxypropylmethyl-cellulose” (Otsuka Pharmaceutical Co., Ltd., priority 1990, dated 1994).
# How the values were obtained:
# [1] = after administration in vivo; via conversion into EM-FU and CNDP; cited from earlier work
# [2] = Absorption test using beagle (oral administration, EM-FU concentration in plasma); type: in vivo; settings: preparations corresponding to 100 mg BOF-A2 per beagle, all cases
compound,measurement,setting,value
"CCOCn1cc(F)c(=O)n(C(=O)c2cccc(C(=O)Oc3nc(OC(=O)c4ccccc4)ccc3C#N)c2)c1=O [BOF-A2, 3-[3-(6-Benzoyloxy-3-cyano-2-pyridyloxycarbonyl)benzoyl]-1-ethoxymethyl-5-fluorouracil]",anti-cancer activity,[1],continuous and strong anti-cancer activity
same,non-changed compound (BOF-A2) in plasma,[2],not detected
